From patent US12234221B2, “Pyridine carboxamide compounds for inhibiting NAV1.8” (Lieber Institute, Inc., priority 2018, dated 2025)
pIC50: −log10 of the molar value.

Target: T1, human Nav1.8 (hNav1.8) ion channel (Homo sapiens, UniProt Q9Y5Y9)
T1 construct: expressed in transfected cells; host or cells: HEK293
Assay: Nav1.8 channel inhibition, estimated IC50 (one or more of: fluorescence inhibition assay, PatchXpress, IonFlux HT automated patch clamp)
Format: cell-based
Conditions: HEK293 cells stably expressing hNav1.8; method used per compound not stated; read-out: Activity range (estimated IC50)
Procedure: The ability of pyridine carboxamide derivatives exemplified above to inhibit the Nav1.8 channel was determined using one or more of the methods described below.
HEK Nav1.8 β1/β2 Stably Expressing Cell Line
A HEK293 cell line stably expressing the human Nav1.8 (hNav1.8) ion channel with β1/β2 subunits was constructed. The cell line is suitable for IC50 determination in fluorescence and electrophysiological based assays. It is also suitable to form mechanism of action pharmacology studies in electrophysiological assays. HEK293 Nav 1.8 cells are grown as adherent monolayers in DMEM/high glucose media, 10% fetal bovine serum, Na pyruvate (2 mM), Hepes (10 mM) with selection agents G418 (400 mg/L) and puromycin (0.5 mg/L) at 37 degrees C., 10% CO2.
Nav 1.8 Fluorescence Inhibition Assay
Compounds were made up to or supplied as a 10-mM stock solution using DMSO as the vehicle. Concentration-response curves were generated using a Matrix multichannel pipettor. Compound source plates were made by diluting 10 mM compound stocks to create 500 μM (100×) solutions in DMSO in 96-well v-bottom plates. Compounds were then serially diluted in 100% DMSO to generate a 5 point, 4-fold dilution scheme dose response curve. 2 μL of the 100× dose response curves was then added to preincubation and stimulation assay plates. 100 μL of pre-incubation buffer and 200 μL of stimulation buffer were then added to the plates resulting in a final assay test concentration range of 5 μM to 0.02 μM with a final DMSO concentration of 1%.
On the day of assay, plates were washed to remove cell culture media using 2K EBSS buffer (135 mM NaCl, 2 mM KCl, 5 mM Glucose, 2 mM CaCl2), 1 mM MgCl2, 10 mM HEPES, pH 7.4). The Na-sensitive fluorescent dye, Asante Natrium Green-2 (ANG-2) is incubated for 60 min to allow equilibration and then washed with 2K EBSS. Plates are the transferred to a fluorescence plate reader (FLIPR™, Molecular Devices) for fluorescence measurement using an excitation wavelength of 490 nm and an emission wavelength of 565 nm. Compounds are pre-incubated at for 5 min at final test concentration in the presence of ouabain (30 μM) to inhibit Na+ efflux through Na+/K+ exchanger. Following the pre-incubation phase, hNav1.8 channels are stimulated with 10 μM of the pyrethroid deltamethrin to prevent channel inactivation. The assay was run for 15 min with vehicle and 30 μM tetracaine serving as negative and positive controls, respectively. The peak change in fluorescence relative to negative and positive control wells was calculated and fit with a logistic equation to determine IC50.
PatchXpress Nav 1.8 Inhibition Assay
HEK-Nav1.8 β1/β2 cells were recorded in whole cell patch-clamp using the PatchXpress automated patch clamp platforms (Molecular Devices). Cells suspensions were obtained by trypsinization of adherent monolayers, followed by gentle rocking for minimally 30 min. Compounds were prepared from 10 mM DMSO stocks.
Nav1.8 channel variants were evaluated using Protocol 1 (FIG. 2) in which cells were initially voltage clamped at a holding potential of −100 mV to maintain Nav1.8 in a closed resting state. After current amplitude becomes stable, the mid-point voltage of steady state inactivation was determined for each cell using a series of 5 sec conditioning steps to increasingly depolarized voltages (−100 to 0 mV) The holding potential was then reset to a voltage that produces ˜50% inactivation (Vhalf−set automatically via PatchXpress scripts) so that closed and inactivated channel inhibition can be assessed. Protocol 1 was run at a frequency of 0.1 Hz until current amplitude is steady (automatically determined by PatchXpress scripts). The effect of test reagent on Nav current amplitude was monitored using custom PatchXpress stability scripts which determines the timing of compound addition and washout. Data were processed and analyzed using DataXpress 2.0 (Molecular Devices). […]

T1 sequence (Q9Y5Y9 whole entry): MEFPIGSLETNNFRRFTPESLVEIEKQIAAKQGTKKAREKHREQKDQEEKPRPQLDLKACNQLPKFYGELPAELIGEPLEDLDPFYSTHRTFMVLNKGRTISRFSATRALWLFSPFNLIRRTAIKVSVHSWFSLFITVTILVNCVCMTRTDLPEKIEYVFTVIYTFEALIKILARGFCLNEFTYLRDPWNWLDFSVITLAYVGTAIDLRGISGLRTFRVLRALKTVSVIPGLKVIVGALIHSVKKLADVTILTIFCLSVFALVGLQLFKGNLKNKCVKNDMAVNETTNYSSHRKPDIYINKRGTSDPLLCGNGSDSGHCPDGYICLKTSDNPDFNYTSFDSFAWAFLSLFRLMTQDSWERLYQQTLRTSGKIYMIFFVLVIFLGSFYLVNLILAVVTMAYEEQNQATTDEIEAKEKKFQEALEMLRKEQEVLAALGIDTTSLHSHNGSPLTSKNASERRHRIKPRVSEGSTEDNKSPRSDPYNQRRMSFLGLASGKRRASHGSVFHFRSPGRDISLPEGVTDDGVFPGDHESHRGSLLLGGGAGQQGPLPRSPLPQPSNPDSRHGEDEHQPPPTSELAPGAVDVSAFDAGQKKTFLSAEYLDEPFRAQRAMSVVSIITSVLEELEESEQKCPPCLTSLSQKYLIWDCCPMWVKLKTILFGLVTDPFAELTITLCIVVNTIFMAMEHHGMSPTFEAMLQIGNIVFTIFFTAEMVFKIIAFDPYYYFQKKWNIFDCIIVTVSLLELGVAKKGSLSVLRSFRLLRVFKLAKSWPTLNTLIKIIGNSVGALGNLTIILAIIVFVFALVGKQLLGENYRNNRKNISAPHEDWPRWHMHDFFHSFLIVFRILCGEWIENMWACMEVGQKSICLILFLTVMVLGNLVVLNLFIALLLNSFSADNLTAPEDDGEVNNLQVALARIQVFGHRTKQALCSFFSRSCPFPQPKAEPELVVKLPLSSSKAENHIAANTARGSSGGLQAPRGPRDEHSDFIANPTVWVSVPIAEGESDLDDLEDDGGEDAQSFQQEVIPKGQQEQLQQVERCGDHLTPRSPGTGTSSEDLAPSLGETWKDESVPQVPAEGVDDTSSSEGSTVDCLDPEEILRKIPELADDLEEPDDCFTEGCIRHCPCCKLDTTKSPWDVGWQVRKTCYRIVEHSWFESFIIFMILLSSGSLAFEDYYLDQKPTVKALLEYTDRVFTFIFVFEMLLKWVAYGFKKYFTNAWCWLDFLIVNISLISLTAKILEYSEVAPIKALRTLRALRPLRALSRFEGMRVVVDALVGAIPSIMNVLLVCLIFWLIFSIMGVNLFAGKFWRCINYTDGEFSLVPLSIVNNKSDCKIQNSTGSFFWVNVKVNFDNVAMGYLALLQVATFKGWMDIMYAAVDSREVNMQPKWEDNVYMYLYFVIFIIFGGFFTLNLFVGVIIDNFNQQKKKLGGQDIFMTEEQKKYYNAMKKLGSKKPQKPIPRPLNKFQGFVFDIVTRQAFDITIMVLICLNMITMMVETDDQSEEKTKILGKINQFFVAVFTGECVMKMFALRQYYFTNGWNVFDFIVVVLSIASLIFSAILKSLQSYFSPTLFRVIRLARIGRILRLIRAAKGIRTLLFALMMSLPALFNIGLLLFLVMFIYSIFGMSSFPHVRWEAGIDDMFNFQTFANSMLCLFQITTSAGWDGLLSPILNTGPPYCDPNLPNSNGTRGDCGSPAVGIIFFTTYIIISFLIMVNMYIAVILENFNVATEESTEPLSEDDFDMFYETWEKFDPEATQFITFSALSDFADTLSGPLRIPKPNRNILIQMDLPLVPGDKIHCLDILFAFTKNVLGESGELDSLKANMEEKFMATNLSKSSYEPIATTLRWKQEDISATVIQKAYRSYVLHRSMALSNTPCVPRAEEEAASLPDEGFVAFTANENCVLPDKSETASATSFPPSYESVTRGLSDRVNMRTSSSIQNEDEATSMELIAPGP

Row | SMILES | pIC50
1 | COc1cc(F)ccc1Oc1ncc(C(F)(F)F)cc1C(=O)Nc1ccnc(C)c1 [Example 17, 2-(4-fluoro-2-methoxy-phenoxy)-N-(2-methyl-4-pyridyl)-5-(trifluoromethyl)pyridine-3-carboxamide] | < 6.00
2 | COc1cc(F)ccc1Oc1ncc(C(F)(F)F)cc1C(=O)Nc1cccc(S(C)(=O)=O)c1 [Example 35, 2-(4-fluoro-2-methoxy-phenoxy)-N-(3-methylsulfonyl-phenyl)-5-(trifluoromethyl)pyridine-3-carboxamide] | > 6.30
3 | Cc1ccc(S(C)(=O)=O)cc1NC(=O)c1cc(C(F)(F)F)cnc1Oc1ccc(OC(F)(F)F)cc1Cl [Example 168, 2-[2-chloro-4-(trifluoromethoxy)phenoxy]-N-(2-methyl-5-methylsulfonyl-phenyl)-5-(trifluoromethyl)pyridine-3-carboxamide] | 6.00 to 6.30
4 | O=C(Nc1ccnnc1)c1cc(C(F)(F)F)cnc1Oc1ccc(F)cc1F [Example 176, 2-(2,4-difluorophenoxy)-N-pyridazin-4-yl-5-(trifluoromethyl)pyridine-3-carboxamide] | < 6.00
5 | CS(=O)(=O)c1cccc(NC(=O)c2cc(C(F)(F)F)cnc2Oc2cc(F)cc(Cl)c2)c1 [Example 45, 2-(3-chloro-5-fluoro-phenoxy)-N-(3-methylsulfonyl-phenyl)-5-(trifluoromethyl)pyridine-3-carboxamide] | < 6.00
6 | COc1cc(F)ccc1Oc1ncc(C(F)(F)F)cc1C(=O)Nc1ccc(C)nc1 [Example 18, 2-(4-fluoro-2-methoxy-phenoxy)-N-(6-methyl-3-pyridyl)-5-(trifluoromethyl)pyridine-3-carboxamide] | < 6.00
7 | Cn1cc(NC(=O)c2cc(C(F)(F)F)cnc2Oc2ccc(OC(F)(F)F)cc2Cl)cn1 [Example 147, 2-[2-chloro-4-(trifluoromethoxy)phenoxy]-N-(1-methylpyrazol-4-yl)-5-(trifluoromethyl)pyridine-3-carboxamide] | > 6.30
8 | COc1ccc(Oc2ncc(C(F)(F)F)cc2C(=O)Nc2ccnnc2)c(OC)c1 [Example 173, 2-(2,4-dimethoxyphenoxy)-N-pyridazin-4-yl-5-(trifluoromethyl)pyridine-3-carboxamide] | < 6.00
9 | CS(=O)(=O)c1cccc(NC(=O)c2cc(C(F)(F)F)cnc2Oc2cc(F)ccc2F)c1 [Example 43, 2-(2,5-difluorophenoxy)-N-(3-methylsulfonyl-phenyl)-5-(trifluoromethyl)pyridine-3-carboxamide] | 6.00 to 6.30
10 | CN=S(C)(=O)c1cccc(NC(=O)c2cc(C(F)(F)F)cnc2Oc2ccc(F)cc2F)c1 (centres unmarked) [Example 175, 2-(2,4-difluorophenoxy)-N-[3-(N,S-dimethylsulfonimidoyl)phenyl]-5(trifluoromethyl)pyridine-3-carboxamide] | > 6.30
11 | COc1cc(NC(=O)c2cc(C(F)(F)F)cnc2Oc2ccc(F)cc2C)ccn1 [Example 109, 2-(4-fluoro-2-methyl-phenoxy)-N-(2-methoxy-4-pyridyl)-5-(trifluoromethyl)pyridine-3-carboxamide] | < 6.00
12 | CS(=O)(=O)c1cccc(NC(=O)c2cc(C(F)(F)F)cnc2Oc2cccc(F)c2)c1 [Example 42, 2-(3-fluorophenoxy)-N-(3-methylsulfonyl-phenyl)-5-(trifluoromethyl)pyridine-3-carboxamide] | 6.00 to 6.30
13 | CS(=O)(=O)c1cccc(NC(=O)c2cc(C(F)(F)F)cnc2Oc2ccccc2C(F)(F)F)c1 [Example 53, N-(3-methylsulfonyl-phenyl)-5-(trifluoromethyl)-2-[2-(trifluoromethyl)phenoxy]pyridine-3-carboxamide] | > 6.30
14 | COc1cc(F)ccc1Oc1nc(C)c(C)cc1C(=O)Nc1cccc(S(C)(=O)=O)c1 [Example 118, 2-(4-fluoro-2-methoxy-phenoxy)-5,6-dimethyl-N-(3-methylsulfonylphenyl)pyridine-3-carboxamide] | > 6.30
15 | CS(=N)(=O)c1cccc(NC(=O)c2cc(C(F)(F)F)cnc2Oc2ccc(F)cc2Cl)c1 (centres unmarked) [Example 60, 2-(2-chloro-4-fluoro-phenoxy)-N-[3-(methylsulfonimidoyl)phenyl]-5-(trifluoromethyl)pyridine-3-carboxamide] | > 6.30

Further lines, results first:

Row | pIC50 | SMILES
16 | > 6.30 | CS(=O)(=O)c1cccc(NC(=O)c2cc([N+](=O)[O-])cnc2Oc2ccc(OC(F)(F)F)cc2)c1 [Example 180, N-(3-methylsulfonylphenyl)-5-nitro-2-[4-(trifluoromethoxy)phenoxy]pyridine-3-carboxamide]
17 | > 6.30 | COc1ccc(Oc2cc(C(F)(F)F)ncc2C(=O)Nc2ccc[n+]([O-])c2)c(OC)c1 [Example 88, 4-(2,4-dimethoxyphenoxy)-N-(1-oxidopyridin-1-ium-3-yl)-6-(trifluoromethyl)pyridine-3-carboxamide]
18 | > 6.30 | CS(=N)(=O)c1cccc(NC(=O)c2cnc(C(F)(F)F)cc2Oc2ccc(OC(F)(F)F)cc2Cl)c1 (centres unmarked) [Example 80, 4-[2-chloro-4-(trifluoromethoxy)phenoxy]-N-[3-(methylsulfonimidoyl)phenyl]-6-(trifluoromethyl)pyridine-3-carboxamide]
19 | 6.00 to 6.30 | O=C(Nc1cccnc1)c1cc(C(F)(F)F)cnc1Oc1ccc(OC(F)(F)F)cc1 [Example 126, N-(3-pyridyl)-2-[4-(trifluoromethoxy)phenoxy]-5-(trifluoromethyl)pyridine-3-carboxamide]
20 | 6.00 to 6.30 | O=C(Nc1ccc[n+]([O-])c1)c1cnc(C(F)(F)F)cc1Oc1ccc(OC(F)F)cc1 [Example 86, 4-[4-(difluoromethoxy)phenoxy]-N-(1-oxidopyridin-1-ium-3-yl)-6-(trifluoromethyl)pyridine-3-carboxamide]
21 | < 6.00 | Cc1ccc(Oc2ncc(C(F)(F)F)cc2C(=O)Nc2cccc(S(C)(=O)=O)c2)cc1 [Example 44, 2-(4-methylphenoxy)-N-(3-methylsulfonyl-phenyl)-5-(trifluoromethyl)pyridine-3-carboxamide]
22 | < 6.00 | O=C(Nc1ccnnc1)c1cnc(C(F)(F)F)cc1Oc1ccc(F)cc1F [Example 100, 4-(2,4-difluorophenoxy)-N-pyridazin-4-yl-6-(trifluoromethyl)pyridine-3-carboxamide]
23 | > 6.30 | O=C(Nc1ccc[n+]([O-])c1)c1cc(C(F)(F)F)cnc1Oc1ccc(OC(F)F)cc1 [Example 136, 3-(2-(4-(difluoromethoxy)phenoxy)-5-(trifluoromethyl)nicotinamido)pyridine 1-oxide]
24 | > 6.30 | COc1ccc(Oc2cc(C(F)(F)F)ncc2C(=O)Nc2ccnnc2)c(OC)c1 [Example 99, 4-(2,4-dimethoxyphenoxy)-N-pyridazin-4-yl-6-(trifluoromethyl)pyridine-3-carboxamide]
25 | 6.00 to 6.30 | Cc1cc(F)ccc1Oc1cc(C(F)(F)F)ncc1C(=O)Nc1ccc[n+]([O-])c1 [Example 85, 4-(4-fluoro-2-methyl-phenoxy)-N-(1-oxidopyridin-1-ium-3-yl)-6-(trifluoromethyl)pyridine-3-carboxamide]
26 | > 6.30 | CS(=N)(=O)c1cccc(NC(=O)c2cnc(C(F)(F)F)cc2Oc2ccc(OC(F)(F)F)cc2)c1 (centres unmarked) [Example 91, N-[3-(methylsulfonimidoyl)phenyl]-4-[4-(trifluoromethoxy)phenoxy]-6-(trifluoromethyl)pyridine-3-carboxamide]
